Reference: patent publication US6969719B2, “Polycyclic guanine phosphodiesterase V inhibitors” (Schering Corporation, priority 2001, dated 2005)
Values joined by “and” are separate entries in the source; they are usually repeats but may differ in a detail not shown here. Equal entries are not always repeated.

What follows are molecules tested against PDE V (Homo sapiens, UniProt O76074) (assay: PDE V isoenzyme inhibition (IC50)). Details: concentration required to provide 50% inhibition of PDE V.
Format: biochemical
From the text: The compounds of the invention can be useful for inhibiting PDE V isoenzymes. Isoenzyme activities and isoenzyme selectivities for particular compounds can be evaluated in a number of ways.

`CCN1C(=O)c2c(nc(NC3CCOCC3)n2Cc2ccc(O)c(Br)c2)N2CCN=C12` [Compound 1] and `CCN1C(=O)c2c(nc(NC3CCOCC3)n2Cc2ccc(O)c(Cl)c2)N2CCN=C12` [Compound 2] cannot be ordered by IC50: ≤ 10 nM for the first, < 8 nM for the second.

`CCN1C(=O)c2c(nc(Br)n2Cc2cc(Br)c3c(c2)CCO3)N2C[C@@H](Cc3ccccc3)N=C12` [Compound 3] and `CCN1C(=O)c2c(nc(Br)n2Cc2cc(Cl)c3c(c2)CCO3)N2C[C@@H](Cc3ccccc3)N=C12` [Compound 15] cannot be ordered by IC50: ≤ 10 nM for the first, ≤ 5 nM for the second.

`CCN1C(=O)c2c(nc(C(=O)OC)n2Cc2cc(Cl)c3c(c2)CCO3)N2C[C@@H](Cc3ccccc3)N=C12` [Compound 4] and `CCN1C(=O)c2c(nc(C(N)=O)n2Cc2cc(Cl)c3c(c2)CCO3)N2C[C@@H](Cc3ccccc3)N=C12` [Compound 10] cannot be ordered by IC50: ≤ 6 nM for the first, ≤ 5 nM for the second.

`CCN1C(=O)c2c(nc(NC3CCCCC3)n2Cc2ccc(O)c(Cl)c2)N2C1=N[C@@H]1CCC[C@@H]12` [Compound 5] and `CCN1C(=O)c2c(nc(NC3CCCCC3)n2Cc2ccc(O)c(Br)c2)N2C1=N[C@@H]1CCC[C@@H]12` [Compound 12] cannot be ordered by IC50: ≤ 6 nM for the first, ≤ 5 nM for the second.

`CCN1C(=O)c2c(ncn2Cc2cc(Cl)c3c(c2)CCO3)N2C[C@@H](Cc3ccccc3)N=C12` [Compound 6] and `CCN1C(=O)c2c(nc(C(N)=O)n2Cc2cc(Br)c3c(c2)CCO3)N2C[C@@H](Cc3ccccc3)N=C12` [Compound 8] cannot be ordered by IC50: ≤ 5 nM for the first, ≤ 5 nM for the second.

`CCN1C(=O)c2nc(C#Cc3ccccc3)n(Cc3ccc(OC(C)=O)cc3)c2N2CC3(CCCC3)N=C12` [Compound 7] and `CCN1C(=O)c2nc(C#Cc3ccccc3)n(Cc3ccc(O)cc3)c2N2CC3(CCCC3)N=C12` [Compound 22] cannot be ordered by IC50: ≤ 5 nM for the first, ≤ 5 nM for the second.

`CCN1C(=O)c2c(nc(NC3CCCCC3)n2Cc2ccc(O)c(Br)c2)N2C[C@@H](Cc3ccccc3)N=C12` [Compound 9] and `CCN1C(=O)c2c(nc(C=NO)n2Cc2ccc(O)c(Cl)c2)N2C[C@@H](Cc3ccccc3)N=C12` [Compound 11] cannot be ordered by IC50: ≤ 5 nM for the first, ≤ 5 nM for the second.

`CCN1C(=O)c2c(nc(OCc3ccccc3)n2Cc2ccc(O)c(Cl)c2)N2C[C@@H](Cc3ccccc3)N=C12` [Compound 13] and `CCN1C(=O)c2c(nc(C#Cc3ccccc3)n2Cc2ccc(O)c(Cl)c2)N2C[C@@H](Cc3ccccc3)N=C12` [Compound 19] cannot be ordered by IC50: ≤ 5 nM for the first, ≤ 5 nM for the second.

`CCN1C(=O)c2c(nc(NC3CCCCC3)n2Cc2ccc(OC)c(Br)c2)N2CCN=C12` [Compound 14] and `CCN1C(=O)c2c(nc(NC3CCCCC3)n2Cc2ccc(OC)c(Cl)c2)N2CCN=C12` [Compound 42] cannot be ordered by IC50: ≤ 5 nM for the first, ≤ 5 nM for the second.

`CCN1C(=O)c2c(nc(NC3CCCCC3)n2Cc2ccc(OC)c(Br)c2)N2C1=N[C@@H]1CCC[C@@H]12` [Compound 17] and `CCN1C(=O)c2c(nc(NC3CCCC3)n2Cc2ccc(OC)c(Cl)c2)N2CCN=C12` [Compound 43] cannot be ordered by IC50: ≤ 5 nM for the first, ≤ 5 nM for the second.

`CCN1C(=O)c2c(nc(NC3CCOCC3)n2Cc2ccc(OC)c(Br)c2)N2CCN=C12` [Compound 18] and `CCN1C(=O)c2c(nc(NC3CCOCC3)n2Cc2ccc(OC)c(Br)c2)N2CCCN=C12` [Compound 20] cannot be ordered by IC50: ≤ 5 nM for the first, ≤ 5 nM for the second.

`CCN1C(=O)c2c(nc(NC3CCOCC3)n2Cc2ccc(OC)c(Cl)c2)N2CCCN=C12` [Compound 21] and `CCN1C(=O)c2c(nc(NC3CCSCC3)n2Cc2ccc(OC)c(Cl)c2)N2CCN=C12` [Compound 57] cannot be ordered by IC50: ≤ 10 nM for the first, ≤ 10 nM for the second.

Going from `CCN1C(=O)c2c(nc(NC3CCOCC3)n2Cc2ccc(O)c(C)c2)N2CCN=C12` [Compound 30] to `CCN1C(=O)c2c(nc(NC3CCOCC3)n2Cc2cc(Cl)c3c(c2)CCO3)N2CCN=C12` [Compound 35], the IC50 falls from ~52 nM to ~18 nM (2.9-fold). The second is the more potent here.

Compared with `CCN1C(=O)c2c(nc(NC3CCOCC3)n2Cc2cc(Br)c3c(c2)CCO3)N2CCN=C12` [Compound 36], `CCN1C(=O)c2c(nc(NC3CCSCC3)n2Cc2ccc(OC)c(Br)c2)N2CCN=C12` [Compound 58] is lower in IC50: ~18 nM for the first, ≤ 5 nM for the second.

`CCN1C(=O)c2c(nc(C#Cc3ccccc3)n2Cc2cc(Cl)c(OC)c(Cl)c2)N2CC3(CCCC3)N=C12` [Compound 44] and `CCOc1nc2c(n1Cc1ccc(O)c(Br)c1)C(=O)N(CC)C1=N[C@H](Cc3ccccc3F)CN12` [Compound 54] cannot be ordered by IC50: ≤ 5 nM for the first, ≤ 5 nM for the second.

`CCN1C(=O)c2c(nc(N[C@@H]3CCC[C@H]3O)n2Cc2ccc(OC)c(Br)c2)N2C1=NCC2C` (stereo partly drawn) [Compound 56] and `CCN1C(=O)c2c(nc(N[C@@H]3CC[C@H](O)C3)n2Cc2ccc(OC)c(Br)c2)N2CCN=C12` [Compound 59] cannot be ordered by IC50: ≤ 5 nM for the first, ≤ 10 nM for the second.

In the case of `CCN1C(=O)c2c(nc(NC3CCOCC3)n2Cc2ccc(OC)c(Cl)c2)N2CCN=C12` [Compound 16], the IC50 is reported as ≤ 10 nM and ≤ 5 nM and ≤ 6 nM and ~1.5 nM.
For `CCN1C(=O)c2c(nc(OC)n2Cc2ccc(OC)c(C#N)c2)N2C[C@@H](Cc3ccccc3)N=C12` [Compound 34], the IC50 was ≤ 10 nM and ~10 nM.

Same assay, conditions: enzyme selectivity, PDE V relative to PDE VI

`CCN1C(=O)c2c(nc(NC3CCOCC3)n2Cc2ccc(O)c(Cl)c2)N2CCN=C12` [Compound 2] was tested, and the “ratio of PDE VI IC50/PDE V IC50” value was > 600.
`CCN1C(=O)c2c(nc(NC3CCOCC3)n2Cc2ccc(O)c(C)c2)N2CCN=C12` [Compound 30] was tested, and the “ratio of PDE VI IC50/PDE V IC50” value was > 190.
